# Reference: patent US12162857B2, “Antiviral compounds” (priority 2022, dated 2024)
# System: Human RSV-A (“Long” strain)
# Experiment: RSV-A assay: CPE in Hep-2 cells, ATPlite readout
# Assay type: cell-based
# Details: human respiratory syncytial virus, 120 h, MOI 0.1, 5-day incubation
# From the text: Hep-2 cells, (originally derived from tumors grown in irradiated-cortisonised weanling rats that had been injected with epidermoid carcinoma tissue from a person's larynx, but later found to be indistinguishable from HeLa cells by PCR DNA analysis), were used for the culturing of genotype A, “Long” strain RSV. Flasks were inoculated with RSV and viral stocks were collected once cytopathic effect (CPE) was greater than 90%. Viral stocks in 25% sucrose media were snap frozen using liquid nitrogen to increase viral stability. Viral stock titers were quantified by tissue culture infectious dose 50% (TCID50) using 8,000 cells per well and 3-fold viral dilutions across a 96-well plate, cultured for 4 days. Viral stock titers were also quantified by a plaque forming unit assay, as described elsewhere.
# Following extensive parameter testing, the final assay is run as follows: Hep-2 cells are seeded into the inner 60 wells of a 96-well plate at 8,000 cells per well in a volume of 50 μL using Growth Media (DMEM without phenol red, 1% L-Glut, 1% Penn/Strep, 1% nonessential amino acids, 10% heat-inactivated FBS). 2-fold serial dilutions of control and test compounds are added to the wells in duplicate in a total volume of 25 μL. Viral stock is then added to the wells at a multiplicity of infection (MOI) of 0.1 in a volume of 25 μL, bringing the total volume of each well to 100 μL. The MOI is calculated using the PFU/mL, or TCID50 if unavailable. Each 96-well plate has a control column of 6 wells with cells and virus but no compound (negative control, max CPE), a column with cells but no compound or virus (positive control, minimum CPE), and a column with no cells or virus or compound (background plate/reagent control). The control wells with cells but no virus are given an additional 25 μL of growth media containing an equal quantity of sucrose as those wells receiving the viral stock in order to keep consistent in media and volume conditions. The outer wells of the plate are filled with 125 μL of moat media (DMEM, 100 Penn/Strep) to act as a thermal and evaporative moat around the test wells. Following a 5-day incubation period, the plates are read using ATPlite (50 uL added per well), which quantifies the amount of ATP (a measure of cell health) present in each well. Assay plates are read using the Envision luminometer. […] EC50 ranges are as follows: A<0.01 μM; B 0.01-0.05 μM; C>0.05 μM.
row,Compound,EC50
1,"COc1cc(C(=O)NC[C@](O)(c2cc(C3(C(N)=O)CC3)cc(-c3cc(Cl)c(F)cc3F)n2)C2CC2)cc2cn(C3CC3)nc12 (single isomer, unassigned) [Example 24]",10 to 50 nM
2,COc1c(C(C)(C)O)cc([C@@](O)(CNC(=O)c2cc(OC)c3nn(C4CC4)cc3c2)C2CC2)nc1-c1cc(Cl)c(F)cc1F [Example 164],> 50 nM
3,"COc1cc(C(=O)NC[C@](O)(c2cc(C3(C(N)=O)CC3)cc(-c3cc(Cl)c(F)cc3F)n2)C2CC2)cc2cn(C(F)F)nc12 (single isomer, unassigned) [Example 25]",10 to 50 nM
4,COc1cc(C(=O)NC[C@](O)(c2cc(C(C)(C)O)c(F)c(-c3ccc(F)cc3)n2)C2CC2)cc2cn(C(F)F)nc12 [Example 2],< 10 nM
5,CC(C)(O)c1cc([C@@](O)(CNC(=O)c2ccc3nn(C4CC4)cc3c2)C2CC2)nc(-c2ccc(F)cc2)c1F [Example 3],10 to 50 nM
6,COc1cc(C(=O)NC[C@](O)(c2cc(N3CC[C@H](O)C3)cc(-c3cc(Cl)c(F)cc3F)n2)C2CC2)cc2cn(C3CC3)nc12 [Example 199],> 50 nM

# Continued, values first:
row,EC50,Compound
1,10 to 50 nM,COc1cc(C(=O)NC[C@@](O)(c2ccccc2)c2cc(C(C)(C)O)c(F)c(-c3cc(Cl)c(F)cc3F)n2)cc2cc(Cl)c(C)nc12 [Example 65]
2,> 50 nM,COc1cc(C(=O)NC[C@@](O)(c2ccccc2)c2cc(C(=O)NC3(C)CC3)c(F)c(-c3cc(Cl)c(F)cc3F)n2)cc2cn(C3CC3)nc12 [Example 195]
3,< 10 nM,COc1cc(C(=O)NC[C@](O)(c2cc(C(C)(C)O)c(F)c(-c3cc(Cl)c(F)cc3F)n2)C2CC2)cc2cn(C3CC3)nc12 [Example 52]
4,< 10 nM,COc1cc(C(=O)NC[C@@](O)(c2ccccc2)c2cc(C(C)(C)O)c(F)c(-c3cc(Cl)c(F)cc3F)n2)cc2cc(C3CC3)nn12 [Example 64]
5,10 to 50 nM,"Cc1nc2c(OC(F)F)cc(C(=O)NC[C@](O)(c3cc(C4(O)CC4)c(F)c(-c4ccc(F)cc4)n3)C3CC3)cc2cc1Br (single isomer, unassigned) [Example 51]"
6,> 50 nM,Cc1nc2c(OC(F)F)cc(C(=O)NC[C@@](O)(c3ccccc3)c3cc(C(C)(C)O)c(F)c(-c4cc(Cl)c(F)cc4F)n3)cc2cc1Br [Example 66]
7,< 10 nM,"COc1cc(C(=O)NC[C@@](O)(c2ccccc2)c2cc(C(C)(C)O)c(Cl)c(-c3cc(Cl)c(F)cc3F)n2)cc2cn(C3CC3)nc12 (single isomer, unassigned) [Example 132]"
8,< 10 nM,"COc1cc(C(=O)NC[C@](O)(c2cc(C3(C(N)=O)CC3)c(F)c(-c3cc(Cl)c(F)cc3F)n2)C2CC2)cc2cc(Cl)c(C)nc12 (single isomer, unassigned) [Example 19]"

# System: HMPV A2 TN/94-49
# Experiment: HMPV antiviral assay: LLC-MK2 cells, ATP-Lite readout
# Assay type: cell-based
# Details: LLC-MK2, 168 h, MOI 0.005, 7 days incubation
# Outline: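 LLC-MK2 cells (5,000/well) were infected in suspension with HMPV A2 TN/94-49 at MOI 0.005 in serum-free OptiMEM with 2 μg/mL final TPCK-trypsin, then incubated for 7 days at 37 °C. Compounds were tested in duplicate from 2 μM in 10-point 2.5-fold dilutions. ATP-Lite luminescence, normalised to virus-only and cells-only controls as % cell health, gave EC50 by four-parameter fit.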
row,Compound,EC50
1,"COc1cc(C(=O)NC[C@](O)(c2cc(C3(C(N)=O)CC3)cc(-c3cc(Cl)c(F)cc3F)n2)C2CC2)cc2cn(C3CC3)nc12 (single isomer, unassigned) [Example 24]",> 1000 nM
2,COc1c(C(C)(C)O)cc([C@@](O)(CNC(=O)c2cc(OC)c3nn(C4CC4)cc3c2)C2CC2)nc1-c1cc(Cl)c(F)cc1F [Example 164],> 1000 nM
3,"COc1cc(C(=O)NC[C@](O)(c2cc(C3(C(N)=O)CC3)cc(-c3cc(Cl)c(F)cc3F)n2)C2CC2)cc2cn(C(F)F)nc12 (single isomer, unassigned) [Example 25]",> 1000 nM
4,COc1cc(C(=O)NC[C@](O)(c2cc(C(C)(C)O)c(F)c(-c3ccc(F)cc3)n2)C2CC2)cc2cn(C(F)F)nc12 [Example 2],< 1000 nM
5,CC(C)(O)c1cc([C@@](O)(CNC(=O)c2ccc3nn(C4CC4)cc3c2)C2CC2)nc(-c2ccc(F)cc2)c1F [Example 3],> 1000 nM
6,COc1cc(C(=O)NC[C@](O)(c2cc(N3CC[C@H](O)C3)cc(-c3cc(Cl)c(F)cc3F)n2)C2CC2)cc2cn(C3CC3)nc12 [Example 199],> 1000 nM

# Second part, the compound after the results:
row,EC50,Compound
1,< 1000 nM,COc1cc(C(=O)NC[C@@](O)(c2ccccc2)c2cc(C(C)(C)O)c(F)c(-c3cc(Cl)c(F)cc3F)n2)cc2cc(Cl)c(C)nc12 [Example 65]
2,> 1000 nM,COc1cc(C(=O)NC[C@@](O)(c2ccccc2)c2cc(C(=O)NC3(C)CC3)c(F)c(-c3cc(Cl)c(F)cc3F)n2)cc2cn(C3CC3)nc12 [Example 195]
3,< 1000 nM,COc1cc(C(=O)NC[C@](O)(c2cc(C(C)(C)O)c(F)c(-c3cc(Cl)c(F)cc3F)n2)C2CC2)cc2cn(C3CC3)nc12 [Example 52]
4,< 1000 nM,COc1cc(C(=O)NC[C@@](O)(c2ccccc2)c2cc(C(C)(C)O)c(F)c(-c3cc(Cl)c(F)cc3F)n2)cc2cc(C3CC3)nn12 [Example 64]
5,> 1000 nM,"Cc1nc2c(OC(F)F)cc(C(=O)NC[C@](O)(c3cc(C4(O)CC4)c(F)c(-c4ccc(F)cc4)n3)C3CC3)cc2cc1Br (single isomer, unassigned) [Example 51]"
6,< 1000 nM,Cc1nc2c(OC(F)F)cc(C(=O)NC[C@@](O)(c3ccccc3)c3cc(C(C)(C)O)c(F)c(-c4cc(Cl)c(F)cc4F)n3)cc2cc1Br [Example 66]
7,< 1000 nM,"COc1cc(C(=O)NC[C@@](O)(c2ccccc2)c2cc(C(C)(C)O)c(Cl)c(-c3cc(Cl)c(F)cc3F)n2)cc2cn(C3CC3)nc12 (single isomer, unassigned) [Example 132]"
8,> 1000 nM,"COc1cc(C(=O)NC[C@](O)(c2cc(C3(C(N)=O)CC3)c(F)c(-c3cc(Cl)c(F)cc3F)n2)C2CC2)cc2cc(Cl)c(C)nc12 (single isomer, unassigned) [Example 19]"

# System: HRSV
# Experiment: not given
# Details: prophylactic use, high risk infants; cited from earlier work
row,Compound,effective in reducing hospitalizations
1,Palivizumab,60%
